The record followed here is patent publication US8663646B2, “P53 peptide vaccine” (priority 2007, dated 2014).

Like-named read-outs stand apart in the source and are kept apart here. Where no end group is shown, it is not given here.

The target in test [1] is T1, HLA-A*0301 (Homo sapiens, UniProt P04439).
T1 construct: B-cell lines used are: CAA (A*0101), EKR (A*0301), BVR (A*1101), VIJF (A*2401); endogenous in cells; host or cells: B-cell line EKR
The experiment in a line: Competition based cellular binding assay, HLA-A*0301 (B-cell line EKR). Conditions: for HLA binding Affinity (Table 5): HLA type A3.

Test [2] addresses T1, HLA-A*0301. The experiment in a line: Stability of peptide-HLA complex, binding at 4° C. and 20° C., HLA-A*0301. As to conditions: for Peptide Binding Stability: HLA-A*0301, IC50 at 20° C. vs 4° C.; for HLA binding Stability (Table 5): HLA type A3. On the procedure: (§1) Stability of other peptide-HLA complexes was preferably determined as follows. […] Peptides of >50% of the initial complexes was lost within 2 hours were considered unstable. […] The rest was designated as unstable peptide binding.
(§2) Peptides 8-11 residues in length were selected based on typical anchor residues for HLA-A*0101, A*0301, A*1101 and HLA-A*2401 (Rammensee H G et al). The capacity of peptides to bind was tested in a competition based cellular binding assay as previously described (van der Burg S H et al 1995). FL-labeled reference peptides were synthesized as Cys-derivative (van der Burg S H et al 1995). Fluorescence labeled reference peptides used were: YLEPAC(FL)AK (SEQ ID NO: 87) (HLA-A*0101) and KVFPC(FL)ALINK (SEQ ID NO: 88) (HLA-A*1101) (Sette A et al), KVFPC(FL)ALINK (SEQ ID NO: 89) (HLAA*0301) (van der Burg S H et al 1995) and RYLKC(FL)QQLL (SEQ ID NO: 90) (A*2401) (Dai L C et al). B-cell lines used are: CAA (A*0101), EKR (A*0301), BVR (A*1101), VIJF (A*2401). The relative binding capacity of the peptides is expressed as the peptide concentration to inhibit 50% (1050) of the binding of the reference peptide. […] Peptide stabilization for HLA-A*0201 was performed as previously described (van der Burg S H et al, 1996). Peptides of >50% of the initial complexes was lost within 2 hours were considered unstable. Stability of other peptide-HLA complexes was determined as follows. Peptide binding was performed at 4° C. and 20° C. and 1050 were determined. […] The rest was designated as unstable peptide binding.

The target in test [3] is T2, 20S immuno-proteasomes from mouse B-cell line (RMA) (Mus musculus, UniProt O35955+P28063+P28076).
T2 construct: 20S immuno-proteasomes were purified from a mouse B-cell line (RMA); endogenous in cells; host or cells: RMA cells; 20S proteasome purified from them
The experiment in a line: In vitro proteasome mediated digestion of 30-mers, mass spectrometry, immunoproteasome RMA. The format is biochemical. As to conditions: 30 residue long precursor peptides. As to the method: (§3) In the context of the invention, “being inefficiently processed by a proteasome” preferably means that within the first hour of digestion by a proteasome less than 1% of total digested peptide is found. The processing by a proteasome is preferably assessed by incubating a purified proteasome, more preferably a human proteasome with a peptide comprising the potential CTL epitope (30 amino acid length approximately) in a proteasome digestion buffer during at least one hour at 37° C. The reaction is subsequently stopped by adding trifluoroacetic acid. Analysis of the digested peptides is performed with electrospray ionization mass spectrometry (see example 1). Even more preferably, the human proteasome is an immunoproteasome from B-LCL JY cells (Kessler J H et al. 2001).
(§4) 20S immuno-proteasomes were purified from a mouse B-cell line (RMA) and a human B-LCL cell line (JY) and 20S household proteasomes were purified from human tumor cell line (HeLa) as described (Kessler J H et al 2001). To assess kinetics, digestions were performed with different incubation periods as indicated. Briefly, peptides containing the (potential) CTL epitopes (30 mers, 20 μg) were incubated with 1 μg of purified proteasome at 37° C. for 1 h, 4 h and 24 h in 300 μl proteasome digestion buffer, trifluoroacetic acid (30 μl) was added to stop the digestion and samples were stored at −20° C. before mass spectrometric analysis. Electrospray ionization mass spectrometry was performed on a hybrid quadrupole time-of-flight mass spectromter, a Q-TOF (Micromass), equipped with an on-line nanoelectrospray interface with an approximate flow rate of […] as described (Kessler J H et al 2001). The peaks in the mass spectrum were searched in the digested precursor peptide using the Biolynx/proteins software (Micromass) supplied with the mass spectrometer. The intensity of the peaks in the mass spectra was used to establish the relative amounts of peptides generated after proteasome digestion. The relative amounts of the peptides are given as a percentage of the total amount of peptide digested by the proteasome at the indicated incubation time. Major cleavage sites are defined as more than >1% of total digested peptide within the first hour.

For test [4], the target named is T3, 20S immuno-proteasomes from human B-LCL cell line (JY) (Homo sapiens, UniProt P28062+P28065+P40306).
T3 construct: purified from a mouse B-cell line (RMA) and a human B-LCL cell line (JY); endogenous in cells; host or cells: B-LCL JY cells; 20S proteasome purified from them
The experiment in a line: In vitro proteasome mediated digestion of 30-mers, mass spectrometry, immunoproteasome JY. Format: biochemical. As to conditions: 30 residue long precursor peptides. On the procedure:
as §3, §4

The target of test [5] is T4, HLA-A*1101 (Homo sapiens, UniProt P04439, A114D/D185E/E176A/F33Y/L180Q/S129P/T187R).
T4 construct: B-cell lines used are: CAA (A*0101), EKR (A*0301), BVR (A*1101), VIJF (A*2401); endogenous in cells; host or cells: B-cell line BVR
As to the kind of experiment: Stability of peptide-HLA complex, binding at 4° C. and 20° C., HLA-A*1101. Conditions: for HLA binding Stability (Table 5): HLA type A11; for Peptide Binding Stability: HLA-A*1101, IC50 at 20° C. vs 4° C. On the procedure: as §1, §2

Test [6] has as its target T4, HLA-A*1101. As to the kind of experiment: Competition based cellular binding assay, HLA-A*1101 (B-cell line BVR). As to conditions: for HLA binding Affinity (Table 5): HLA type A11.
Setting [7] is: HLA-A*1101, IC50 category, read-out: Peptide Binding Affinity.

Take `CC(C)C[C@H](NC(=O)[C@H](Cc1ccccc1)NC(=O)CNC(=O)[C@H](CC(C)C)NC(=O)[C@@H](N)CCCNC(=N)N)C(=O)N[C@@H](Cc1c[nH]cn1)C(=O)N[C@@H](CO)C(=O)NCC(=O)N[C@H](C(=O)N[C@@H](C)C(=O)N[C@@H](CCCCN)C(=O)O)[C@@H](C)O` [p53 110-120]: the “Peptide Binding Affinity” value on HLA-A*0301 [1] (HLA-A*0301, IC50 category) is on record as “high”. Moreover, on HLA-A*0301 [2], the “Peptide Binding Stability” value is “+ (Stable peptides displayed IC50 at 20 °C that deviated <2 times of the IC50 at 4° C.)”. Further, the “Proteasomal Cleavage of C-terminus, IP (RMA)” value in test [3] was “+ (Major cleavage sites are defined as more than >1% of total digested peptide within the first hour)”. Also, in test [4], the “Proteasomal Cleavage of C-terminus, IP (JY)” value is listed as “+ (Major cleavage sites are defined as more than >1% of total digested peptide within the first hour)”.

`CC(C)C[C@H](NC(=O)[C@@H](N)Cc1ccccc1)C(=O)N[C@@H](Cc1c[nH]cn1)C(=O)N[C@@H](CO)C(=O)NCC(=O)N[C@H](C(=O)N[C@@H](C)C(=O)N[C@@H](CCCCN)C(=O)O)[C@@H](C)O` [p53 113-120]: on HLA-A*0301 [1], the “HLA binding Affinity (Table 5)” value is given as “int”. Besides, the IC50 on HLA-A*0301 [1] (HLA-A*0301, IC50 category, read-out: Peptide Binding Affinity) fell in the range of 5 to 15 µM. On HLA-A*0301 [2], the “HLA binding Stability (Table 5)” value is recorded as “− (The rest was designated as unstable peptide binding.)” and the “Peptide Binding Stability” value was “+/− (Peptides that displayed IC50 at 20 °C of more than twice the IC50 at 4 °C but IC50 < 15 μM were considered to bind with intermediate stability.)”. Further, the “Proteasomal Cleavage of C-terminus, IP (RMA)” value in test [3] is recorded as “+ (Major cleavage sites are defined as more than >1% of total digested peptide within the first hour)”. In addition, the “Proteasomal Cleavage of C-terminus, IP (JY)” value in test [4] is “+ (Major cleavage sites are defined as more than >1% of total digested peptide within the first hour)”.

`C[C@@H](O)[C@H](NC(=O)[C@@H](N)CC(N)=O)C(=O)N[C@@H](CO)C(=O)N[C@@H](CO)C(=O)N[C@@H](CO)C(=O)N1CCC[C@H]1C(=O)N[C@@H](CCC(N)=O)C(=O)N1CCC[C@H]1C(=O)N[C@@H](CCCCN)C(=O)O` [p53 311-319]: on HLA-A*1101 [5], the “HLA binding Stability (Table 5)” value was “+/− (Peptides that displayed IC50 at 20 °C of more than twice the IC50 at 4 °C but IC50 < 15 μM were considered to bind with intermediate stability.)” and the “Peptide Binding Stability” value was “+/− (Peptides that displayed IC50 at 20 °C of more than twice the IC50 at 4 °C but IC50 < 15 μM were considered to bind with intermediate stability.)”. For the same compound, on HLA-A*1101 [6], the “HLA binding Affinity (Table 5)” value is on record as “high”. Moreover, on HLA-A*1101 [6] (HLA-A*1101, IC50 category), the “Peptide Binding Affinity” value is recorded as “high”.

For `C[C@@H](O)[C@H](NC(=O)[C@@H](N)CC(N)=O)C(=O)N[C@@H](CO)C(=O)N[C@@H](CO)C(=O)N[C@@H](CO)C(=O)N1CCC[C@H]1C(=O)N[C@@H](CCC(N)=O)C(=O)N1CCC[C@H]1C(=O)N[C@@H](CCCCN)C(=O)N[C@@H](CCCCN)C(=O)O` [p53 311-320], on HLA-A*1101 [5], the “HLA binding Stability (Table 5)” value was “+/− (Peptides that displayed IC50 at 20 °C of more than twice the IC50 at 4 °C but IC50 < 15 μM were considered to bind with intermediate stability.)” and the “Peptide Binding Stability” value was “+/− (Peptides that displayed IC50 at 20 °C of more than twice the IC50 at 4 °C but IC50 < 15 μM were considered to bind with intermediate stability.)”. At HLA-A*1101 [6], the “HLA binding Affinity (Table 5)” value was “high”. The “Peptide Binding Affinity” value at HLA-A*1101 [6] (HLA-A*1101, IC50 category) is given as “high”.

Regarding `C[C@@H](O)[C@H](N)C(=O)N[C@@H](CO)C(=O)N[C@@H](CO)C(=O)N[C@@H](CO)C(=O)N1CCC[C@H]1C(=O)N[C@@H](CCC(N)=O)C(=O)N1CCC[C@H]1C(=O)N[C@@H](CCCCN)C(=O)O` [p53 312-319], at HLA-A*1101 [5], the “HLA binding Stability (Table 5)” value is “+/− (Peptides that displayed IC50 at 20 °C of more than twice the IC50 at 4 °C but IC50 < 15 μM were considered to bind with intermediate stability.)” and the “Peptide Binding Stability” value was “+/− (Peptides that displayed IC50 at 20 °C of more than twice the IC50 at 4 °C but IC50 < 15 μM were considered to bind with intermediate stability.)”. On HLA-A*1101 [6], the “HLA binding Affinity (Table 5)” value is “high”. The “Peptide Binding Affinity” value at HLA-A*1101 [6] (HLA-A*1101, IC50 category) is “high”.

For the compound `CC(C)C[C@H](NC(=O)[C@H](Cc1c[nH]cn1)NC(=O)[C@H](CO)NC(=O)[C@H](CO)NC(=O)[C@H](Cc1c[nH]cn1)NC(=O)[C@H](C)NC(=O)[C@@H](N)CCCNC(=N)N)C(=O)N[C@@H](CCCCN)C(=O)O` [p53 363-370], the results for the “HLA binding Affinity (Table 5)” value on HLA-A*0301 [1] and on HLA-A*1101 [6] were “high” and “int”, respectively. Further, the “Peptide Binding Affinity” value on HLA-A*0301 [1] (HLA-A*0301, IC50 category) is listed as “high”. Further, the entries for the “HLA binding Stability (Table 5)” value on HLA-A*0301 [2] and on HLA-A*1101 [5] were “+ (Stable peptides displayed IC50 at 20 °C that deviated <2 times of the IC50 at 4° C.)” and “+/− (Peptides that displayed IC50 at 20 °C of more than twice the IC50 at 4 °C but IC50 < 15 μM were considered to bind with intermediate stability.)”, respectively. The “Peptide Binding Stability” value at HLA-A*0301 [2] is “+ (Stable peptides displayed IC50 at 20 °C that deviated <2 times of the IC50 at 4° C.)”; at HLA-A*1101 [5], “+/− (Peptides that displayed IC50 at 20 °C of more than twice the IC50 at 4 °C but IC50 < 15 μM were considered to bind with intermediate stability.)”. Further, the IC50 on HLA-A*1101 [6] (setting [7]) was in the range of 5 to 15 µM.

In the case of GQSTSRHKK [p53 374-382], at HLA-A*1101 [5], the “HLA binding Stability (Table 5)” value is “+/− (Peptides that displayed IC50 at 20 °C of more than twice the IC50 at 4 °C but IC50 < 15 μM were considered to bind with intermediate stability.)” and the “Peptide Binding Stability” value was “+/− (Peptides that displayed IC50 at 20 °C of more than twice the IC50 at 4 °C but IC50 < 15 μM were considered to bind with intermediate stability.)”. On HLA-A*1101 [6], the IC50 fell in the range of 5 to 15 µM and the “HLA binding Affinity (Table 5)” value is reported as “int”.

Regarding RTEEENLRK [p53 283-291], on HLA-A*1101 [5], the “HLA binding Stability (Table 5)” value is “+/− (Peptides that displayed IC50 at 20 °C of more than twice the IC50 at 4 °C but IC50 < 15 μM were considered to bind with intermediate stability.)” and the “Peptide Binding Stability” value was “+/− (Peptides that displayed IC50 at 20 °C of more than twice the IC50 at 4 °C but IC50 < 15 μM were considered to bind with intermediate stability.)”. In addition, the “HLA binding Affinity (Table 5)” value at HLA-A*1101 [6] is reported as “int”. For the same compound, the IC50 at HLA-A*1101 [6] (setting [7]) lay within 5 to 15 µM.
